Assay results published in ChEMBL document CHEMBL1671854, “ramR mutations involved in efflux-mediated multidrug resistance in Salmonella enterica serovar Typhimurium” (2008).
Values after ≈ are worked out from the molar mass of the structure shown.

How the values were obtained:
Format in all cases: functional, Salmonella enterica subsp. enterica serovar Typhimurium
Salmonella typhimurium [1] = test: Antimicrobial activity against Salmonella enterica serovar Typhimurium BN18 by agar doubling dilution method
Salmonella typhimurium [2] = test: Antimicrobial activity against Salmonella enterica serovar Typhimurium BN18/71 harboring plasmid encoded RamR gene, GyrA G81C,acrR mutant genes by agar doubling dilution method
Salmonella typhimurium [3] = test: Antimicrobial activity against multidrug-resistant Salmonella enterica serovar Typhimurium 543SA98 harboring plasmid encoded RamR gene, GyrA S83Y mutant gene by agar doubling dilution method
Salmonella typhimurium [4] = test: Antimicrobial activity against Salmonella enterica serovar Typhimurium BN18/71 harboring GyrA G81C, acrR mutant genes by agar doubling dilution method
Salmonella typhimurium [5] = test: Antimicrobial activity against Salmonella enterica serovar Typhimurium BN18/41 harboring GyrA G81C,acrR mutant genes by agar doubling dilution method
Salmonella typhimurium [6] = test: Antimicrobial activity against ramA::kan-deficient Salmonella enterica serovar Typhimurium S/921495 by agar doubling dilution method
Salmonella typhimurium [7] = test: Antimicrobial activity against multidrug-resistant Salmonella enterica serovar Typhimurium 102SA00 harboring GyrA S83A and D87N, GyrB S464F and ParC S80I mutant genes by agar doubling dilution method
Salmonella typhimurium [8] = test: Antimicrobial activity against multidrug-resistant Salmonella enterica serovar Typhimurium 902SA92 harboring GyrA S83A and D87N, GyrB S464F and ParC S80I mutant genes by agar doubling dilution method
Salmonella typhimurium [9] = test: Antimicrobial activity against ramA::kan-deficient Salmonella enterica serovar Typhimurium BN9181 by agar doubling dilution method
Salmonella typhimurium [10] = test: Antimicrobial activity against Salmonella enterica serovar Typhimurium BN18 harboring plasmid encoded RamR gene by agar doubling dilution method
Salmonella typhimurium [11] = test: Antimicrobial activity against ramA::kan-deficient Salmonella enterica serovar Typhimurium BN9945 by agar doubling dilution method
Salmonella typhimurium [12] = test: Antimicrobial activity against Salmonella enterica serovar Typhimurium S/921495 harboring plasmid encoded RamR gene by agar doubling dilution method
Salmonella typhimurium [13] = test: Antimicrobial activity against soxS::kan-deficient Salmonella enterica serovar Typhimurium S/921495 by agar doubling dilution method
Salmonella typhimurium [14] = test: Antimicrobial activity against ramR-deficient Salmonella enterica serovar Typhimurium S/921495 by agar doubling dilution method
Salmonella typhimurium [15] = test: Antimicrobial activity against Salmonella enterica serovar Typhimurium BN18/41 harboring plasmid encoded RamR gene, GyrA G81C,acrR mutant genes by agar doubling dilution method
Salmonella typhimurium [16] = test: Antimicrobial activity against multidrug-resistant Salmonella enterica serovar Typhimurium BN10055 harboring plasmid encoded RamR gene, GyrA S83Y mutant gene by agar doubling dilution method
Salmonella typhimurium [17] = test: Antimicrobial activity against ramA::kan-deficient Salmonella enterica serovar Typhimurium BN10055 harboring GyrA S83Y mutant gene by agar doubling dilution method
Salmonella typhimurium [18] = test: Antimicrobial activity against ramA::kan-deficient Salmonella enterica serovar Typhimurium BN18/71 harboring plasmid encoded RamR gene, GyrA G81C,acrR mutant genes by agar doubling dilution method
Salmonella typhimurium [19] = test: Antimicrobial activity against multidrug-resistant Salmonella enterica serovar Typhimurium BN9945 harboring plasmid encoded RamR gene by agar doubling dilution method
Salmonella typhimurium [20] = test: Antimicrobial activity against ramA::kan-deficient Salmonella enterica serovar Typhimurium BN18 by agar doubling dilution method
Salmonella typhimurium [21] = test: Antimicrobial activity against ramA::kan-deficient Salmonella enterica serovar Typhimurium 543SA98 harboring GyrA S83Y mutant gene by agar doubling dilution method
Salmonella typhimurium [22] = test: Antimicrobial activity against Salmonella enterica serovar Typhimurium BN18/21 harboring plasmid encoded RamR gene by agar doubling dilution method
Salmonella typhimurium [23] = test: Antimicrobial activity against marR::kan-deficient Salmonella enterica serovar Typhimurium S/921495 by agar doubling dilution method
Salmonella typhimurium [24] = test: Antimicrobial activity against soxR::kan-deficient Salmonella enterica serovar Typhimurium S/921495 by agar doubling dilution method
Salmonella typhimurium [25] = test: Antimicrobial activity against Salmonella enterica serovar Typhimurium BN18/21 by agar doubling dilution method
Salmonella typhimurium [26] = test: Antimicrobial activity against ramA::kan-deficient Salmonella enterica serovar Typhimurium BN18/41 harboring plasmid encoded RamR gene, GyrA G81C,acrR mutant genes by agar doubling dilution method
Salmonella typhimurium [27] = test: Antimicrobial activity against ramA::kan-deficient Salmonella enterica serovar Typhimurium 102SA00 harboring GyrA S83A and D87N, GyrB S464F and ParC S80I mutant genes by agar doubling dilution method
Salmonella typhimurium [28] = test: Antimicrobial activity against ramA::kan-deficient Salmonella enterica serovar Typhimurium BN18/21 by agar doubling dilution method
Salmonella typhimurium [29] = test: Antimicrobial activity against marR-deficient Salmonella enterica serovar Typhimurium S/921495 by agar doubling dilution method
Salmonella typhimurium [30] = test: Antimicrobial activity against ramA::kan-deficient Salmonella enterica serovar Typhimurium 902SA92 harboring GyrA S83A and D87N, GyrB S464F and ParC S80I mutant genes by agar doubling dilution method
Salmonella typhimurium [31] = test: Antimicrobial activity against multidrug-resistant Salmonella enterica serovar Typhimurium BN9181 harboring plasmid encoded RamR gene by agar doubling dilution method
Salmonella typhimurium [32] = test: Antimicrobial activity against marA::kan-deficient Salmonella enterica serovar Typhimurium S/921495 by agar doubling dilution method
Salmonella typhimurium [33] = test: Antimicrobial activity against multidrug-resistant Salmonella enterica serovar Typhimurium 543SA98 harboring GyrA […] mutant gene by agar doubling dilution method
Salmonella typhimurium [34] = test: Antimicrobial activity against multidrug-resistant Salmonella enterica serovar Typhimurium BN10055 harboring GyrA S83Y mutant gene by agar doubling dilution method
Salmonella typhimurium [35] = test: Antimicrobial activity against multidrug-resistant Salmonella enterica serovar Typhimurium BN9945 by agar doubling dilution method
Salmonella typhimurium [36] = test: Antimicrobial activity against multidrug-resistant Salmonella enterica serovar Typhimurium 902SA92 harboring plasmid encoded RamR gene, GyrA S83A and D87N, GyrB S464F and ParC S80I mutant genes by agar doubling dilution method
Salmonella typhimurium [37] = test: Antimicrobial activity against Salmonella enterica serovar Typhimurium S/921495 by agar doubling dilution method
Salmonella typhimurium [38] = test: Antimicrobial activity against ramR-deficient Salmonella enterica serovar Typhimurium S/921495 harboring plasmid encoded RamR gene by agar doubling dilution method
Salmonella typhimurium [39] = test: Antimicrobial activity against multidrug-resistant Salmonella enterica serovar Typhimurium 102SA00 harboring plasmid encoded RamR gene, GyrA S83A and D87N, GyrB S464F and ParC S80I mutant genes by agar doubling dilution method
Salmonella typhimurium [40] = test: Antimicrobial activity against multidrug-resistant Salmonella enterica serovar Typhimurium BN9181 by agar doubling dilution method
Salmonella typhimurium [41] = test: Antimicrobial activity against ramR::kan-deficient Salmonella enterica serovar Typhimurium S/921495 by agar doubling dilution method

CS(=O)(=O)c1ccc([C@@H](O)[C@@H](CF)NC(=O)C(Cl)Cl)cc1 [FLORFENICOL]
MIC (Salmonella typhimurium [1]): 4 µg/mL (≈ 11.2 µM)
MIC (Salmonella typhimurium [2]): 8 µg/mL (≈ 22.3 µM)
MIC (Salmonella typhimurium [3]): 128 µg/mL (≈ 357 µM)
MIC (Salmonella typhimurium [4]): 64 µg/mL (≈ 179 µM)
MIC (Salmonella typhimurium [5]): 64 µg/mL (≈ 179 µM)
MIC (Salmonella typhimurium [6]): 4 µg/mL (≈ 11.2 µM)
MIC (Salmonella typhimurium [7]): 16 µg/mL (≈ 44.7 µM)
MIC (Salmonella typhimurium [8]): 16 µg/mL (≈ 44.7 µM)
MIC (Salmonella typhimurium [9]): 32 µg/mL (≈ 89.3 µM)
MIC (Salmonella typhimurium [10]): 4 µg/mL (≈ 11.2 µM)
MIC (Salmonella typhimurium [11]): 64 µg/mL (≈ 179 µM)
MIC (Salmonella typhimurium [12]): 4 µg/mL (≈ 11.2 µM)
MIC (Salmonella typhimurium [13]): 4 µg/mL (≈ 11.2 µM)
MIC (Salmonella typhimurium [14]): 16 µg/mL (≈ 44.7 µM)
MIC (Salmonella typhimurium [15]): 8 µg/mL (≈ 22.3 µM)
MIC (Salmonella typhimurium [16]): 128 µg/mL (≈ 357 µM)
MIC (Salmonella typhimurium [17]): 32 µg/mL (≈ 89.3 µM)
MIC (Salmonella typhimurium [18]): 8 µg/mL (≈ 22.3 µM)
MIC (Salmonella typhimurium [19]): 64 µg/mL (≈ 179 µM)
MIC (Salmonella typhimurium [20]): 2 µg/mL (≈ 5.58 µM)
MIC (Salmonella typhimurium [21]): 128 µg/mL (≈ 357 µM)
MIC (Salmonella typhimurium [22]): 4 µg/mL (≈ 11.2 µM)
MIC (Salmonella typhimurium [23]): 4 µg/mL (≈ 11.2 µM)
MIC (Salmonella typhimurium [24]): 4 µg/mL (≈ 11.2 µM)
MIC (Salmonella typhimurium [25]): 16 µg/mL (≈ 44.7 µM)
MIC (Salmonella typhimurium [26]): 8 µg/mL (≈ 22.3 µM)
MIC (Salmonella typhimurium [27]): 4 µg/mL (≈ 11.2 µM)
MIC (Salmonella typhimurium [28]): 4 µg/mL (≈ 11.2 µM)
MIC (Salmonella typhimurium [29]): 4 µg/mL (≈ 11.2 µM)
MIC (Salmonella typhimurium [30]): 4 µg/mL (≈ 11.2 µM)
MIC (Salmonella typhimurium [31]): 32 µg/mL (≈ 89.3 µM)
MIC (Salmonella typhimurium [32]): 4 µg/mL (≈ 11.2 µM)
MIC (Salmonella typhimurium [33]): 512 µg/mL (≈ 1430 µM)
MIC (Salmonella typhimurium [34]): 128 µg/mL (≈ 357 µM)
MIC (Salmonella typhimurium [35]): 128 µg/mL (≈ 357 µM)
MIC (Salmonella typhimurium [36]): 4 µg/mL (≈ 11.2 µM)
MIC (Salmonella typhimurium [37]): 4 µg/mL (≈ 11.2 µM)
MIC (Salmonella typhimurium [38]): 4 µg/mL (≈ 11.2 µM)
MIC (Salmonella typhimurium [39]): 4 µg/mL (≈ 11.2 µM)
MIC (Salmonella typhimurium [40]): 32 µg/mL (≈ 89.3 µM)
MIC (Salmonella typhimurium [41]): 16 µg/mL (≈ 44.7 µM)

O=C(N[C@H](CO)[C@H](O)c1ccc([N+](=O)[O-])cc1)C(Cl)Cl [CHLORAMPHENICOL]
MIC (Salmonella typhimurium [1]): 4 µg/mL (≈ 12.4 µM)
MIC (Salmonella typhimurium [2]): 16 µg/mL (≈ 49.5 µM)
MIC (Salmonella typhimurium [3]): 128 µg/mL (≈ 396 µM)
MIC (Salmonella typhimurium [4]): 64 µg/mL (≈ 198 µM)
MIC (Salmonella typhimurium [5]): 32 µg/mL (≈ 99 µM)
MIC (Salmonella typhimurium [6]): 4 µg/mL (≈ 12.4 µM)
MIC (Salmonella typhimurium [7]): 512 µg/mL (≈ 1580 µM)
MIC (Salmonella typhimurium [8]): 1020 µg/mL (≈ 3170 µM)
MIC (Salmonella typhimurium [9]): 128 µg/mL (≈ 396 µM)
MIC (Salmonella typhimurium [10]): 4 µg/mL (≈ 12.4 µM)
MIC (Salmonella typhimurium [11]): 128 µg/mL (≈ 396 µM)
MIC (Salmonella typhimurium [12]): 4 µg/mL (≈ 12.4 µM)
MIC (Salmonella typhimurium [13]): 4 µg/mL (≈ 12.4 µM)
MIC (Salmonella typhimurium [14]): 16 µg/mL (≈ 49.5 µM)
MIC (Salmonella typhimurium [15]): 16 µg/mL (≈ 49.5 µM)
MIC (Salmonella typhimurium [16]): 1020 µg/mL (≈ 3170 µM)
MIC (Salmonella typhimurium [17]): 128 µg/mL (≈ 396 µM)
MIC (Salmonella typhimurium [18]): 16 µg/mL (≈ 49.5 µM)
MIC (Salmonella typhimurium [19]): 128 µg/mL (≈ 396 µM)
MIC (Salmonella typhimurium [20]): 4 µg/mL (≈ 12.4 µM)
MIC (Salmonella typhimurium [21]): 128 µg/mL (≈ 396 µM)
MIC (Salmonella typhimurium [22]): 4 µg/mL (≈ 12.4 µM)
MIC (Salmonella typhimurium [23]): 4 µg/mL (≈ 12.4 µM)
MIC (Salmonella typhimurium [24]): 4 µg/mL (≈ 12.4 µM)
MIC (Salmonella typhimurium [25]): 16 µg/mL (≈ 49.5 µM)
MIC (Salmonella typhimurium [26]): 16 µg/mL (≈ 49.5 µM)
MIC (Salmonella typhimurium [27]): 256 µg/mL (≈ 792 µM)
MIC (Salmonella typhimurium [28]): 4 µg/mL (≈ 12.4 µM)
MIC (Salmonella typhimurium [29]): 4 µg/mL (≈ 12.4 µM)
MIC (Salmonella typhimurium [30]): 256 µg/mL (≈ 792 µM)
MIC (Salmonella typhimurium [31]): 128 µg/mL (≈ 396 µM)
MIC (Salmonella typhimurium [32]): 4 µg/mL (≈ 12.4 µM)
MIC (Salmonella typhimurium [33]): 512 µg/mL (≈ 1580 µM)
MIC (Salmonella typhimurium [34]): 1020 µg/mL (≈ 3170 µM)
MIC (Salmonella typhimurium [35]): 512 µg/mL (≈ 1580 µM)
MIC (Salmonella typhimurium [36]): 256 µg/mL (≈ 792 µM)
MIC (Salmonella typhimurium [37]): 4 µg/mL (≈ 12.4 µM)
MIC (Salmonella typhimurium [38]): 4 µg/mL (≈ 12.4 µM)
MIC (Salmonella typhimurium [39]): 256 µg/mL (≈ 792 µM)
MIC (Salmonella typhimurium [40]): 128 µg/mL (≈ 396 µM)
MIC (Salmonella typhimurium [41]): 16 µg/mL (≈ 49.5 µM)
